According to patent US8889662B2, “Method to alter sex ratios in avian offspring” (University of Georgia Research Foundation, Inc., priority 2009, dated 2014):

Key:
[1] = test system: zebra finch (Taeniopygia guttata); test: Example 2: primary sex ratio after hormone injection five hours before ovulation, zebra finches; format: in vivo
Method: Zebra finch (Taeniopygia guttata) pairs obtained from a breeding colony maintained at The University of Georgia were housed in individual cages and provided feed and water ad libidumn. Birds were kept under a 14 hour (h) light (L):10 h dark (D) light schedule. Egg-laying was monitored daily and eggs marked to record sequence order. Females were injected intraperitoneally after the first or second egg of the clutch was laid with one of three treatments: 20 μg of CORT dissolved in 50 μl peanut oil and 10% ethanol (CORT), 20 μg of progesterone dissolved in […] and 10% ethanol (P), or 50 μl of control peanut oil (C). A fourth set of females received no injection treatment (UN). […] The follicle ovulating 5 hours after injection, was laid approximately 36 hours after injection (FIG. 3). Ovulating follicles exposed to treatments were laid as the 3rd or 4th egg in the sequence (3rd egg if treatment was administered on the day the 1st egg was laid and the 4th egg in the sequence if treatment was administered on the day the 2nd egg was laid). Eggs were allowed to incubate in the nest for 8-12 days prior to collection to allow sufficient embryonic development for DNA extraction and molecular sexing analyses. Occasionally these treatments disrupted the oviposition immediately following the injection. Females that delayed oviposition after treatment were excluded from analysis because it was not possible to determine whether the egg collected the following day was from the ovulation event that occurred immediately following injection or from a delayed oviposition of the follicle ovulated the day prior to injection. Females that delayed oviposition were allowed to complete the clutch after which the treatment was repeated during the next clutch. […] Only 1/10 females treated with progesterone laid successfully. For this reason, progesterone treatments were eliminated from further analyses.
Molecular Sexing. Genomic DNA was extracted from embryonic tissue using a standard salt extraction method (Lambert et al., 2000, Journal of Neuroscience Methods; 95:127-132). Portions of the W-linked avian CHD (CHD-W) on females and its non W-linked homologue (CHD-Z) were amplified using polymerase chain reaction (PCR) with primers P2 and P8 (Griffiths et al., 1998, Mol Ecol; 7:1071-1075). […] The presence of the W chromosome was determined through the visualization of two bands while males were identified when only one band was produced.
Twenty-one target embryos were successfully sexed from control females, 16 from non-injected females, and 18 from CORT treated females. […] Differences in the number of females that produced males was analyzed among treatment groups by performing a logistic regression in StatView (SAS Institute, Cary, N.C. USA) using sex as the response variable (male=1). […]

avian species = conditions: long-term silastic implants, literature; cited from earlier work
[2] = Example 2: plasma corticosterone radioimmunoassay after injection, zebra finches; format: in vivo, Zebra finch (Taeniopygia guttata); conditions: zebra finch, 20 ug
Method: Radioimmunoassays. […] Different individuals were sampled at each time point. Blood samples were also taken from a set of unmanipulated females at time intervals 20 minutes and 1 hour, during the same bleeding session. To ensure that measurements reflect corticosterone elevations associated with the injection and not the stress of handling, samples were taken from the brachial vein within 3 minutes of capture (Romero and Romero, 2002, Condor; 104:129-135; Wingfield et al., 1982, Condor; 84:399-409). Injections and sampling began at 2300 hours (5 hors prior to ovulation) to accurately measure the blood plasma levels of corticosterone and changes in corticosterone levels in response to injections during the approximate period that meiosis occurs. Based on studies done in other avian species, it is likely that the time period from injection to blood sampling is just prior to the natural diurnal CORT peak that occurs at the end of the dark period (Westerhof et al., 1994, Avian Diseases; 38:428-434; de Jong et al., 2001, Physiology and Behavior; 74:299-304). The procedures for extraction and radioimmunoassay of corticosterone from plasma were followed as described by (Wingfield and Farner, 1975, Steroids; 26:311-327) and (Mendonça et al., 1996, Horm Behav; 30:153-161) using a rabbit derived anti-corticosterone antibody (MP Biomedicals, Solon, Ohio USA, cat #07-120016).
Statistical Analysis. Plasma CORT concentrations were analyzed among treatment groups and time points using a two-way ANOVA, and individual treatment differences were analyzed using Fisher's PLSD. All hormone data were non-normally distributed and were thus log transformed for statistical analyses.

[3] = Example 1: plasma CORT radioimmunoassay after injection, zebra finches; format: in vivo, zebra finch (Taeniopygia guttata); conditions: female zebra finches
Method: This experiment was conducted to determine whether a single injection of CORT at the critical time of sex chromosome segregation is sufficient to skew offspring sex ratios towards females. Female zebra finches were monitored for signs of nest-building and egg-laying. Approximately 19 h following the appearance of the first egg (1 h before sex chromosome segregation), females received one of two treatments: (1) a high dose of CORT (20 ug in 50 ul peanut oil), or (2) a control treatment (50 ul peanut oil). Because oviposition and ovulation are nearly concurrent, ovulation of the second egg took place when the first egg was laid. Thus, the egg that would be affected by our treatment was the third egg in the sequence. Eggs were labeled as they were laid and were collected after 6 d of incubation for molecular sexing analysis as described above. The percentage of females producing male offspring in each group were calculated and compared using chi square analyses. Blood samples were taken from a subset of females 1 h and 2.5 h post injection to verify that the CORT injection did, in fact, elevate circulating maternal CORT concentrations. CORT was quantified using a standard radioimmunoassay and CORT concentrations were log transformed and analyzed using an analysis of variance (ANOVA).

SMILES: C[C@]12C[C@H](O)[C@H]3[C@@H](CCC4=CC(=O)CC[C@@]43C)[C@@H]1CC[C@@H]2C(=O)CO [corticosterone]
- males produced (primary sex ratio) ([1]; 20 ug intraperitoneally five hours before ovulation, 3rd or 4th egg, control injected 61.9%, uninjected 37.5%): 72%
- male embryos produced compared to non-manipulated females (FIG. 5 legend) ([1]; 20 ug, no significant difference from control injected females): produced significantly more male embryos
- Proportion male ([1]; eggs laid before treatment by the same treatment group (baseline)): 0.4375
- Proportion male ([1]; target eggs (Treatment), 20 ug): 0.72
- offspring sex ratio with long-term CORT elevation (avian species): sex ratios were skewed significantly towards females
- plasma corticosterone levels compared to non-injected birds ([2]; 20 minutes after injection, p<0.0001): raised corticosterone levels significantly
- levels of corticosterone post-injection ([2]; 20 minutes, 1 hour and 2.5 hours post-injection (summary statement)): significantly elevated levels of corticosterone
- plasma corticosterone levels compared to non-injected birds ([2]; 1 hour post-injection, p=0.0002): remained significantly elevated
- plasma corticosterone levels, CORT treated versus control treated females ([2]; 2.5 hours after injection, p=0.0789): similar
- plasma corticosterone levels compared to unmanipulated females ([2]; 2.5 hr post-injection versus unmanipulated birds sampled at 1 h, p=0.0401): significantly higher corticosterone levels
- plasma corticosterone levels (FIG. 4 legend) ([2]; min and one hour after injection): significantly raised plasma corticosterone levels
- circulating CORT concentrations compared to controls ([3]; 20 ug CORT in 50 ul peanut oil, within 1 h of injection, p<0.0001): significantly increased circulating CORT concentrations
- circulating CORT concentrations compared to controls ([3]; 20 ug CORT, 2.5 h post-injection, p=0.08): remained higher in the CORT treated females 2.5 h post-injection, but not significantly so
